# Reference: PubChem BioAssay AID2060906 (Molecular Pharmacology Branch, DTP, NCI, 2025)
# Tested on: 485176-168-R4-J1-PDC complex spheroid growth
# Experiment: Anticancer human tumor 485176-168-R4-J1-PDC patient-derived pancreatic adenocarcinoma cell line growth inhibition [RAS]
# Conditions: for viability, T/C: stronger effect = lower value
# Procedure, shortened: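 Multi-cell-type spheroids: tumor cells plus HUVEC endothelial cells and mesenchymal stem cells. RAS-pathway inhibitors were combined with targeted agents, each dosed in half-log steps down from clinical Cmax, or from 10 microM when Cmax was unknown.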
# [1] = curve of first compound, second compound 0.000949 µM
# [2] = curve of first compound, second compound 0.003 µM
# [3] = curve of first compound, second compound 0.00949 µM
# [4] = curve of first compound, second compound 0.03 µM
# [5] = curve of first compound, second compound 0.0949 µM
# [6] = curve of first compound, second compound 0.3 µM
# [7] = second compound 0.000949 µM, first compound 0.00316 µM
# [8] = second compound 0.000949 µM, first compound 0.01 µM
# [9] = second compound 0.000949 µM, first compound 0.0316 µM
# [10] = second compound 0.000949 µM, first compound 0.1 µM
# [11] = second compound 0.000949 µM, first compound 0.316 µM
# [12] = second compound 0.000949 µM, first compound 1 µM
# [13] = second compound 0.003 µM, first compound 0.00316 µM
# [14] = second compound 0.003 µM, first compound 0.01 µM
# [15] = second compound 0.003 µM, first compound 0.0316 µM
# [16] = second compound 0.003 µM, first compound 0.1 µM
# [17] = second compound 0.003 µM, first compound 0.316 µM
# [18] = second compound 0.003 µM, first compound 1 µM
# [19] = second compound 0.00949 µM, first compound 0.00316 µM
# [20] = second compound 0.00949 µM, first compound 0.01 µM
# [21] = second compound 0.00949 µM, first compound 0.0316 µM
# [22] = second compound 0.00949 µM, first compound 0.1 µM
# [23] = second compound 0.00949 µM, first compound 0.316 µM
# [24] = second compound 0.00949 µM, first compound 1 µM
# [25] = second compound 0.03 µM, first compound 0.00316 µM
# [26] = second compound 0.03 µM, first compound 0.01 µM
# [27] = second compound 0.03 µM, first compound 0.0316 µM
# [28] = second compound 0.03 µM, first compound 0.1 µM
# [29] = second compound 0.03 µM, first compound 0.316 µM
# [30] = second compound 0.03 µM, first compound 1 µM
# [31] = second compound 0.0949 µM, first compound 0.00316 µM
# [32] = second compound 0.0949 µM, first compound 0.01 µM
# [33] = second compound 0.0949 µM, first compound 0.0316 µM
# [34] = second compound 0.0949 µM, first compound 0.1 µM
# [35] = second compound 0.0949 µM, first compound 0.316 µM
# [36] = second compound 0.0949 µM, first compound 1 µM
# [37] = second compound 0.3 µM, first compound 0.00316 µM
# [38] = second compound 0.3 µM, first compound 0.01 µM
# [39] = second compound 0.3 µM, first compound 0.0316 µM
# [40] = second compound 0.3 µM, first compound 0.1 µM
# [41] = second compound 0.3 µM, first compound 0.316 µM
# [42] = second compound 0.3 µM, first compound 1 µM
# [43] = second compound 0.000949 µM, first compound 3.16 µM
# [44] = second compound 0.000949 µM, first compound 10 µM
# [45] = second compound 0.003 µM, first compound 3.16 µM
# [46] = second compound 0.003 µM, first compound 10 µM
# [47] = second compound 0.00949 µM, first compound 3.16 µM
# [48] = second compound 0.00949 µM, first compound 10 µM
# [49] = second compound 0.03 µM, first compound 3.16 µM
# [50] = second compound 0.03 µM, first compound 10 µM
# [51] = second compound 0.0949 µM, first compound 3.16 µM
# [52] = second compound 0.0949 µM, first compound 10 µM
# [53] = second compound 0.3 µM, first compound 3.16 µM
# [54] = second compound 0.3 µM, first compound 10 µM
# 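Also: spheroids exposed to compounds for seven days before readout.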
# 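For viability, T/C in this document: luminescence viability expressed relative to DMSO vehicle wells set as 100%.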
smiles,measurement,setting,value
Nc1ccn(C2OC(CO)C(O)C2(F)F)c(=O)n1 (stereo not given),"viability, T/C",compound 0.00316 µM,97.3% [middle of 4 runs]
same,"viability, T/C",compound 0.0316 µM,17.7% [middle of 4 runs]
same,"viability, T/C",compound 0.1 µM,9.63% [middle of 4 runs]
same,"viability, T/C",compound 0.316 µM,9.78% [middle of 4 runs]
same,"viability, T/C",compound 1 µM,12.4% [middle of 4 runs]
same,IC50,curve of compound,16.7 nM [middle of 4 runs]
C=CC(=O)Nc1cc(Nc2nccc(-c3cn(C)c4ccccc34)n2)c(OC)cc1N(C)CCN(C)C + CCn1c(-c2cccnc2C(C)OC)c2c3cc(ccc31)N1CCOC(CC(NC(=O)C(C(C)C)N(C)C(=O)C3(F)CCN(C(=O)C#CC(C)(C)N(C)C)CC3)C(=O)N3CCCC(N3)C(=O)OCC(C)(C)C2)C1,IC50,[1],> 1000 nM
same,IC50,[2],> 1000 nM
same,IC50,[3],> 1000 nM
same,IC50,[4],> 1000 nM
same,IC50,[5],> 1000 nM
same,IC50,[6],> 1000 nM
same,"viability, T/C",[7],114%
same,"viability, T/C",[8],109%
same,"viability, T/C",[9],102%
same,"viability, T/C",[10],97.6%
same,"viability, T/C",[11],84.5%
same,"viability, T/C",[12],72%
same,"viability, T/C",[13],98.2%
same,"viability, T/C",[14],105%
same,"viability, T/C",[15],90.3%
same,"viability, T/C",[16],85.6%
same,"viability, T/C",[17],99.1%
same,"viability, T/C",[18],61.4%
same,"viability, T/C",[19],104%
same,"viability, T/C",[20],109%
same,"viability, T/C",[21],102%
same,"viability, T/C",[22],88.2%
same,"viability, T/C",[23],80.8%
same,"viability, T/C",[24],69%
same,"viability, T/C",[25],86.8%
same,"viability, T/C",[26],113%
same,"viability, T/C",[27],114%
same,"viability, T/C",[28],102%
same,"viability, T/C",[29],89.9%
same,"viability, T/C",[30],58.7%
same,"viability, T/C",[31],81.6%
same,"viability, T/C",[32],77.9%
same,"viability, T/C",[33],81.6%
same,"viability, T/C",[34],96.5%
same,"viability, T/C",[35],92.3%
same,"viability, T/C",[36],57.1%
same,"viability, T/C",[37],87.6%
same,"viability, T/C",[38],93%
same,"viability, T/C",[39],82.7%
same,"viability, T/C",[40],93.1%
same,"viability, T/C",[41],78.3%
same,"viability, T/C",[42],65.9%
C=CC(=O)Nc1cc(Nc2nccc(-c3cn(C)c4ccccc34)n2)c(OC)cc1N(C)CCN(C)C,"viability, T/C",compound 0.00316 µM,96.8% [middle of 4 runs]
same,"viability, T/C",compound 0.01 µM,97.1% [middle of 4 runs]
same,"viability, T/C",compound 0.0316 µM,96.3% [middle of 4 runs]
same,"viability, T/C",compound 0.316 µM,93.2% [middle of 4 runs]
same,"viability, T/C",compound 1 µM,64.5% [middle of 4 runs]
same,IC50,curve of compound,> 1000 nM
C=CC(=O)N1CCN(c2nc(OCC3CCCN3C)nc3c(F)c(-c4nc(N)cc(C)c4C(F)(F)F)c(Cl)cc23)C(C)C1 (stereo not given) + CCn1c(-c2cc(N3CCN(C)CC3)cnc2C(C)OC)c2c3cc(ccc31)-c1csc(n1)CC(NC(=O)C1CC1C)C(=O)N1CCCC(N1)C(=O)OCC(C)(C)C2,IC50,[1],> 1000 nM
same,IC50,[2],> 1000 nM
same,IC50,[3],> 1000 nM
same,IC50,[4],> 1000 nM
same,IC50,[5],> 1000 nM
same,IC50,[6],> 1000 nM
same,"viability, T/C",[7],95.4%
same,"viability, T/C",[8],86.6%
same,"viability, T/C",[9],100%
same,"viability, T/C",[10],109%
same,"viability, T/C",[11],114%
same,"viability, T/C",[12],99%
same,"viability, T/C",[13],85.3%
same,"viability, T/C",[14],89.7%
same,"viability, T/C",[15],87.4%
same,"viability, T/C",[16],103%
same,"viability, T/C",[17],101%
same,"viability, T/C",[18],97.2%
same,"viability, T/C",[19],89.3%
same,"viability, T/C",[20],88.5%
same,"viability, T/C",[21],96.5%
same,"viability, T/C",[22],108%
same,"viability, T/C",[23],91.7%
same,"viability, T/C",[24],114%
same,"viability, T/C",[25],95.5%
same,"viability, T/C",[26],97%
same,"viability, T/C",[27],77.2%
same,"viability, T/C",[28],79.7%
same,"viability, T/C",[29],87.6%
same,"viability, T/C",[30],87.8%
same,"viability, T/C",[31],84.4%
same,"viability, T/C",[32],105%
same,"viability, T/C",[33],80.4%
same,"viability, T/C",[34],80.7%
same,"viability, T/C",[35],76.1%
same,"viability, T/C",[36],81.6%
same,"viability, T/C",[37],72.9%
same,"viability, T/C",[38],72.8%
same,"viability, T/C",[39],82%
same,"viability, T/C",[40],76.6%
same,"viability, T/C",[41],91.8%
same,"viability, T/C",[42],69.3%
C[C@@H](NC(=O)c1ncnc(N)c1Cl)c1ncc(C(=O)Nc2cc(C(F)(F)F)c(Cl)cn2)s1 + CCn1c(-c2cccnc2C(C)OC)c2c3cc(ccc31)N1CCOC(CC(NC(=O)C(C(C)C)N(C)C(=O)C3(F)CCN(C(=O)C#CC(C)(C)N(C)C)CC3)C(=O)N3CCCC(N3)C(=O)OCC(C)(C)C2)C1,IC50,[1],> 10000 nM
same,IC50,[2],> 10000 nM
same,IC50,[3],> 10000 nM
same,IC50,[4],> 10000 nM
same,IC50,[5],> 10000 nM
same,IC50,[6],9480 nM
same,"viability, T/C",[9],101%
same,"viability, T/C",[10],91.7%
same,"viability, T/C",[11],100%
same,"viability, T/C",[12],85.9%
same,"viability, T/C",[43],72.2%
same,"viability, T/C",[44],54.5%
same,"viability, T/C",[15],88.6%
same,"viability, T/C",[16],89.4%
same,"viability, T/C",[17],86.2%
same,"viability, T/C",[18],70.6%
same,"viability, T/C",[45],71%
same,"viability, T/C",[46],59.6%
same,"viability, T/C",[21],87.1%
same,"viability, T/C",[22],98.5%
same,"viability, T/C",[23],83.7%
same,"viability, T/C",[24],82.4%
same,"viability, T/C",[47],91%
same,"viability, T/C",[48],53%
same,"viability, T/C",[27],81.3%
same,"viability, T/C",[28],85.6%
same,"viability, T/C",[29],102%
same,"viability, T/C",[30],78.3%
same,"viability, T/C",[49],75.6%
same,"viability, T/C",[50],79.5%
same,"viability, T/C",[33],89.9%
same,"viability, T/C",[34],90.3%
same,"viability, T/C",[35],78.5%
same,"viability, T/C",[36],70.7%
same,"viability, T/C",[51],74%
same,"viability, T/C",[52],58.3%
same,"viability, T/C",[39],75.2%
same,"viability, T/C",[40],76.4%
same,"viability, T/C",[41],65.7%
same,"viability, T/C",[42],72.4%
same,"viability, T/C",[53],59%
same,"viability, T/C",[54],49.7%
CC(Nc1ccc2c(c1)OCCn1cc(N3C(=O)OCC3C(F)F)nc1-2)C(N)=O (stereo not given) + CCn1c(-c2cc(N3CCN(C)CC3)cnc2C(C)OC)c2c3cc(ccc31)-c1csc(n1)CC(NC(=O)C1CC1C)C(=O)N1CCCC(N1)C(=O)OCC(C)(C)C2,IC50,[1],> 10000 nM
same,IC50,[2],> 10000 nM
same,IC50,[3],7940 nM
same,IC50,[4],7650 nM
same,IC50,[5],2110 nM
same,IC50,[6],> 10000 nM
same,"viability, T/C",[9],100%
same,"viability, T/C",[10],91.9%
same,"viability, T/C",[11],71.8%
same,"viability, T/C",[12],79.8%
same,"viability, T/C",[43],70.5%
same,"viability, T/C",[44],51.1%
same,"viability, T/C",[15],92.8%
same,"viability, T/C",[16],74.8%
same,"viability, T/C",[17],73.7%
same,"viability, T/C",[18],72%
same,"viability, T/C",[45],61.3%
same,"viability, T/C",[46],47%
same,"viability, T/C",[21],81.5%
same,"viability, T/C",[22],72.7%
same,"viability, T/C",[23],76.9%
same,"viability, T/C",[24],76.1%
same,"viability, T/C",[47],62.2%
same,"viability, T/C",[48],46.7%
same,"viability, T/C",[27],75.9%
same,"viability, T/C",[28],78.5%
same,"viability, T/C",[29],69.3%
same,"viability, T/C",[30],60.5%
same,"viability, T/C",[49],58%
same,"viability, T/C",[50],48.1%
same,"viability, T/C",[33],66.9%
same,"viability, T/C",[34],83.7%
same,"viability, T/C",[35],77.1%
same,"viability, T/C",[36],51.9%
same,"viability, T/C",[51],56.8%
same,"viability, T/C",[52],41.2%
same,"viability, T/C",[39],75.6%
same,"viability, T/C",[40],72.3%
same,"viability, T/C",[41],57.6%
same,"viability, T/C",[42],57.7%
same,"viability, T/C",[53],51.3%
same,"viability, T/C",[54],51.2%
